Experiments:
[1] = molecular target: Hepatocyte growth factor receptor (Homo sapiens, UniProt P08581); experiment: Inhibition of phosphorylation of c-Met in human MKN45 cells
[2] = molecular target: T1, Macrophage-stimulating protein receptor (Homo sapiens, UniProt Q04912); experiment: Inhibition of RON phosphorylation in human PC3 cells; format: cell-based, PC-3
[3] = molecular target: T1, Macrophage-stimulating protein receptor; experiment: Inhibition of RON phosphorylation in human HT29 cells; format: cell-based, HT-29
MDA-MB-231 = experiment: Antiproliferative activity against human MDA-MB-231 cells by MTT assay; format: functional, cell-based
A549 = experiment: Antiproliferative activity against human A549 cells by MTT assay; format: functional, cell-based
[4] = molecular target: T1, Macrophage-stimulating protein receptor; experiment: Inhibition of RON (unknown origin) kinase domain by enzymatic assay

T1 sequence (Q04912 25-304 limits assumed): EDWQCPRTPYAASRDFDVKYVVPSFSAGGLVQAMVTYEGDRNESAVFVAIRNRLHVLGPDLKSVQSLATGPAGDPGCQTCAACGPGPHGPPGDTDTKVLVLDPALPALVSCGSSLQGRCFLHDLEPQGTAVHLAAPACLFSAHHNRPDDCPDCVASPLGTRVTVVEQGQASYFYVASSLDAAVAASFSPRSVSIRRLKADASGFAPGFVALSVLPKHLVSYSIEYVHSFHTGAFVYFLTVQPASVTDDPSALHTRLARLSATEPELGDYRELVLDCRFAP
T1 sequence (Q04912 310-1400 limits assumed): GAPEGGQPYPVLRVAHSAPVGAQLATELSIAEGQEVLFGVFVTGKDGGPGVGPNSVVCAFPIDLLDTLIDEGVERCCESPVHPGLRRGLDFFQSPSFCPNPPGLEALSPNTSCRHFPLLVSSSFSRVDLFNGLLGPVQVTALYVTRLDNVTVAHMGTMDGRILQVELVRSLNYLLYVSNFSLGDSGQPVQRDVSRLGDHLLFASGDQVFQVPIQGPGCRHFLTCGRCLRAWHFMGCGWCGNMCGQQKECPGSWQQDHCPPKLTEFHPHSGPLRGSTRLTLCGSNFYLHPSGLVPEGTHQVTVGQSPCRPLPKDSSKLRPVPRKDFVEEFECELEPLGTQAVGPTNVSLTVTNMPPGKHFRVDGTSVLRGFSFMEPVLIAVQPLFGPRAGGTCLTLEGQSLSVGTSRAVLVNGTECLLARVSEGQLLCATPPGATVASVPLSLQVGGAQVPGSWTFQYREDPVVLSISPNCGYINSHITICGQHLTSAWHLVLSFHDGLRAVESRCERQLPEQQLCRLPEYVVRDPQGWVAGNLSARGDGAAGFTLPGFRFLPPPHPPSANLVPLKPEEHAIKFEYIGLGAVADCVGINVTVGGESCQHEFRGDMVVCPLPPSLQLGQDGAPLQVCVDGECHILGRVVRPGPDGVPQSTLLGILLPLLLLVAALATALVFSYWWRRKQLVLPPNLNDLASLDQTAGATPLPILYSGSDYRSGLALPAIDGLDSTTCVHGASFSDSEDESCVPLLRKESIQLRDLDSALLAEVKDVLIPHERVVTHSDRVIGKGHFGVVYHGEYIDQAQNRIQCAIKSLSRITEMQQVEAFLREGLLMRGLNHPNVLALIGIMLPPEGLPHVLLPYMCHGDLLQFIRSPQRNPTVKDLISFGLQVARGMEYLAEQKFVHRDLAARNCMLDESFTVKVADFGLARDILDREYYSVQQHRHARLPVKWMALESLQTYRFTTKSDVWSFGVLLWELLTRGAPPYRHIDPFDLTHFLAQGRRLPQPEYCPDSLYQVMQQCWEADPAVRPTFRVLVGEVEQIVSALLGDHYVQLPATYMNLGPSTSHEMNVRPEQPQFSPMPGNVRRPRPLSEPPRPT
Chain of Hepatocyte growth factor receptor (P08581 whole entry): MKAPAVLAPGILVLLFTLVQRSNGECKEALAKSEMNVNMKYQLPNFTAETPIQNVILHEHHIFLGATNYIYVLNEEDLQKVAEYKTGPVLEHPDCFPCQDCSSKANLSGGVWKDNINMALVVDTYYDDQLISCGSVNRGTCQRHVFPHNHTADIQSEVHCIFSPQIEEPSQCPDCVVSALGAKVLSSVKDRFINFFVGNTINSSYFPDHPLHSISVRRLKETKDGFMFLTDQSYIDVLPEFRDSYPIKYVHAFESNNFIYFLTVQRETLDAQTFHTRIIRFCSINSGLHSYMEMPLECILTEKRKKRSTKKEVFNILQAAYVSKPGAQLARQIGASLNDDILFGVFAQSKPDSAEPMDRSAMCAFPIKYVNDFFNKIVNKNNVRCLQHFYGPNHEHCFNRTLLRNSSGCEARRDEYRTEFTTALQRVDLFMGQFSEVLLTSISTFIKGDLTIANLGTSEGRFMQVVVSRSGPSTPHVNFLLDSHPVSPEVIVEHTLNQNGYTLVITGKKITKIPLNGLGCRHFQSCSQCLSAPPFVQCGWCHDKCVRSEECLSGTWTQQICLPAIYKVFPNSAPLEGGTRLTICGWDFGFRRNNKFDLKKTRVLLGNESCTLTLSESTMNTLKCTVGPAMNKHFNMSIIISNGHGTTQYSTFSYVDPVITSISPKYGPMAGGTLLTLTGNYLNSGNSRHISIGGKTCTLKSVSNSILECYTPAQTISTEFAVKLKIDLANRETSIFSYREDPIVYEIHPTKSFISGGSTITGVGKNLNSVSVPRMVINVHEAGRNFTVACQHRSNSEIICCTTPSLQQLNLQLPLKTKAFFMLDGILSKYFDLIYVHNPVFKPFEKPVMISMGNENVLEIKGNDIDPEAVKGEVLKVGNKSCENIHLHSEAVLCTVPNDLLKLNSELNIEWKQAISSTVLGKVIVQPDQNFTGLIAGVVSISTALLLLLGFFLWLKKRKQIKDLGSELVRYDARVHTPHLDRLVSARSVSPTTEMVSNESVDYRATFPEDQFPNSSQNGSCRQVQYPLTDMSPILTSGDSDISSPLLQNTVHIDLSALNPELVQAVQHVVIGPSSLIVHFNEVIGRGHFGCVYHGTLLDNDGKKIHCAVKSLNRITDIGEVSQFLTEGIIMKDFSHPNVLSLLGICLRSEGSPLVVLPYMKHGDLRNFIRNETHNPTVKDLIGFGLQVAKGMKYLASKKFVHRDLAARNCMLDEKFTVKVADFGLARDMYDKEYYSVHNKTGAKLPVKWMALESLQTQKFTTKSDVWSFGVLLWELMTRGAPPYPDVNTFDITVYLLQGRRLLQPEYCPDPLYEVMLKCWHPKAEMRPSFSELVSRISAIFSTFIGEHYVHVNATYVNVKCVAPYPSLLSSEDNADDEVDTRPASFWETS

Row | IC50 [1] [µM] | IC50 [2] [µM] | IC50 [3] [µM] | IC50 (MDA-MB-231) [µM] | IC50 (A549) [µM] | IC50 [4] [µM] | IC50 ([1]; mkn-45) | Compound
1 | 6.87 | 0.03 | 0.03 | 0.1 | 0.1 | 0.012 | – | Cn1cnc(-c2cc3nccc(Oc4ccc(NC(=O)c5cnn(-c6ccccc6)c5C(F)(F)F)cc4F)c3s2)c1
2 | – | – | – | – | – | – | Not Active | Cn1cnc(-c2cc3nccc(Oc4ccc(NC(=O)c5ccn(-c6ccccc6)c5C(F)(F)F)cc4F)c3s2)c1
